Reference: paper PMC5430962, “Retro-inverso Urokinase Receptor Antagonists for the Treatment of Metastatic Sarcomas” (Scientific Reports, 2017)
Where a SMILES comes first, the peptide text is derived from it. Where no end group is shown, it is not given here. [ ]: non-standard residue; d: D form. The star is where a group is joined. Hydrocinnamoyl = O=C(CCc1ccccc1)*; PhAc = O=C(Cc1ccccc1)*; Aib = CC(C)(N)C(=O)O

Legend:
[1] = tested on: GFP-tagged Sarc cells; assay: Growth and spread of subcutaneous GFP-tagged Sarc tumors in nude mice; assay type: in vivo, Foxn1nu/nu female nude mice; conditions: 6 mg/Kg i.p. every day for 12 days, five mice per group
Method: To evaluate the effect of RI-3 on tumor growth and vascularization, Sarc cells were injected, as a single-cell suspension (1 × 10^6 cells in 100 µl of sterile PBS, 97% viability), subcutaneously in the flanks of sixteen six-eight weeks old, Foxn1nu/nu female nude mice (Harlan). Animals were randomized into two 8-mice groups with the treatment group receiving 6 mg/kg RI-3 by intra-peritoneal injection every 24 hr, and the control group receiving an equivalent injected volume of vehicle (PBS) only. Time-dependent average weight was monitored every two days. The length and the width of tumors were measured at different time points with a calliper and volumes were calculated using the formula: ½ × (width)[2] × length (mm). After 10 days, blood samples (at least 500 µL/mouse) from the retro-orbital venous plexus of mice anesthetized with 1% isoflurane were collected using a heparinized capillary tube and processed for determination of the Circulating Tumor Cells (CTCs). Then, the animals were sacrificed, the excised tumors were fixed in buffered formalin and processed for paraffin sectioning. Tumor vascularization was assessed by counting vascular channels harbouring red blood cells on CD31 immuno-stained sections in 5 randomly chosen fields per section, in at least two sections per tumor at x 200 as described. Two additional experiments were carried out with the same experimental design by injecting GFP-tagged Sarc cells (1 × 10^6 cells/mouse) subcutaneously in the flanks of twenty-five six-eight weeks old, Foxn1nu/nu female nude mice (Harlan). Animals were treated with 6 mg/kg RI-3, 6 mg/kg RERF or vehicle by intra-peritoneal injection every 24 hr for 10 or 12 days. Tumor growth and the appearance of positive tumor lesions near tumors and in lungs were monitored as brightly visualized by GFP fluorescence with a MacroFluo fluorescence stereomicroscope (Leica). We searched for the presence of GFP-positive nodules on the entire surface of freshly isolated lungs. Lungs were also sliced at approximately 3-mm thickness to examine the parenchyma in depth, and the positive nodules were acquired at higher magnification.

[2] = tested on: HT1080 cells; assay: HT1080 matrigel invasion toward 10% FBS in Boyden chambers; assay type: cell-based, human; conditions: 10 nM peptide plus 10% FBS, 6 hr, means of three independent experiments in triplicate
Method: (§1) Cell migration in Boyden chambers was carried out for 4 hr at 37 °C in humidified air with 5% CO2, as described. Briefly, cell suspension (1 × 10^5 viable cells/mL serum free medium) was seeded in each upper chamber. Lower chambers were filled with DMEM alone, DMEM containing RI peptides, 10 nM fMLF, or 10% FBS with/without RI peptides. The two compartments were separated by 8 μm pore size polycarbonate filters (Neuroprobe) coated with 2.5 µg/mL vitronectin (Corning). For the invasion assays, 8 μm pore size filters were coated with 50 μg/filter matrigel (BD Biosciences) as previously described[40] and cells (3 × 10^4 viable cells/well) were allowed to invade matrigel for 6 hr at 37 °C, 5% CO2. In all cases, at the end of the assay, cells on the lower filter surface were fixed with ethanol, stained with haematoxylin and 10 random fields/filter were counted at 200× magnification. Each experiment was performed three times in triplicate.

[3] = tested on: HT1080 cells; assay: HT1080 cell migration toward 10% FBS in Boyden chambers; assay type: cell-based, human; conditions: 10 nM peptide plus 10% FBS, 4 hr, means of three independent experiments in triplicate
Method: as §1

[4] = cited from earlier work
Description: (§2) Following on this observation, we developed a series of linear peptides that inhibit the uPAR/FPR1 interaction and reduce to basal levels directional cell migration, invasion and angiogenesis[37]–[40]. While providing proof-of-principle for the strategy, none of these peptides represents an ideal lead molecule: many of these peptides are unstable to enzymatic digestion in human serum, which limits their half-life in vivo, whereas ...

[5] = tested on: sarcoma cell; conditions: cited from earlier work
Description: as §2

[6] = biological target: T1, FPR1 (Homo sapiens, UniProt P21462); assay: Ligand binding assay: FITC-fMLF binding to RBL-2H3/ETFR cells; conditions: 100 nM unlabeled peptide 60 min at 4 °C, then 10 nM FITC-fMLF 60 min at 4 °C; fluorescence plate reader
T1 construct: expressed in transfected cells; host or cells: rat basophilic leukaemia RBL-2H3/ETFR cells (gift of F. Blasi)
T1 sequence (P21462 1-350): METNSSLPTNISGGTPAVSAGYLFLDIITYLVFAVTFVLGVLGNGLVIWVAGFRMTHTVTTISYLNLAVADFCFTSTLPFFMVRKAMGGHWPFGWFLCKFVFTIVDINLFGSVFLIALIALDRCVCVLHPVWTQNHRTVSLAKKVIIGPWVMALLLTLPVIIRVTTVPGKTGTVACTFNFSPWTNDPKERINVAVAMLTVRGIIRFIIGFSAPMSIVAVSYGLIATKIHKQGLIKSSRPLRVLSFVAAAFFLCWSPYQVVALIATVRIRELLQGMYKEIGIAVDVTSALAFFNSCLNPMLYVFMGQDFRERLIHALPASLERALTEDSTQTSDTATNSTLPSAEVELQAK
Method: RBL-2H3 cells, RBL-2H3/ETFR cells stably expressing FPR1 (1.5 × 10^6 cells/sample) were pre-incubated with diluents or the indicated unlabeled peptides for 60 min at 4 °C, extensively rinsed with phosphate buffer saline (PBS), exposed to 10 nM FITC-fMLF (Molecular Probes) in PBS for additional 60 min at 4 °C and again rinsed with PBS. Cell-associated fluorescence was quantitated with the fluorescence plate reader Victor 3 (Perkin Elmer) using 485 nm excitation and 535 nm emission filters. The experiments were performed three times in triplicate.

[7] = tested on: HT1080 cells; assay: HT1080 cell migration toward peptide as chemoattractant, xCELLigence RTCA; assay type: cell-based, human; conditions: migration toward 10 nM peptide, monitored 18 hr, quadruplicate
Method: The kinetics of cell migration was monitored in real time using the xCELLigence Real Time Cell Analysis (RTCA) technology (Acea Bioscience) as described, [80]. For these experiments we used CIM-plates which are provided with interdigitated gold microelectrodes on the bottom side of a filter membrane interposed between a lower and an upper compartment. The lower chamber was filled with serum-free medium or growth medium with/without RI peptides. Cells (2 × 10^4 cells/well) were seeded on filters in serum-free medium. Cell migration was monitored for 18 hr, and each experiment was performed at least twice in quadruplicate.

[8] = biological target: T1, FPR1; assay: Agonist-dependent FPR1 internalization, fluorescence microscopy in RBL-2H3/ETFR cells; assay type: cell-based; conditions: 100 nM peptide 30 min at 37 °C, then 10 nM FITC-fMLF 30 min at 37 °C; confocal microscopy
Method: Cells grown on glass slides to semi-confluence were exposed to diluents or the indicated unlabeled peptides for 30 min at 37 °C, then to 10 nM FITC-fMLF in PBS for additional 30 min at 37 °C and extensively rinsed with PBS. To visualize the cytoskeleton, the cells were fixed with 2.5% formaldehyde, permeabilized with 0.1% Triton X-100 for 10 min at 4 °C, and incubated with 0.1 µg/mL rhodamine-conjugated phalloidin (Sigma-Aldrich) for 40 min. In all cases, coverslips were mounted using 20% (w/v) Mowiol, visualized with a Zeiss 510META-LSM microscope (Carl Zeiss), and z-series were collected at 0.20 µm intervals.

[9] = tested on: monocyte; conditions: read-out: IC50 of inhibition of fMLF-induced monocyte locomotion; cited from earlier work
Description: The uPAR domains DI-DIII are connected by short linker regions. DI-DIII pack together into a concave structure that shifts to an active conformation upon binding to uPA[21], [22]. The linker between DI-DII is more flexible than that between the DII‒DIII domains[23]–[25], and includes the protease-sensitive crucial signaling region, uPAR84–95. In the form of a synthetic peptide, the minimal 88–92 sequence (Ser^88-Arg-Ser-Arg-Tyr^92, SRSRY) retains chemotactic activity and triggers directional cell migration and angiogenesis in vitro and in vivo [15]–[17], [26], [27]. Mechanistically, these ...

Molecule: CC(=O)N[C@@H](CCCNC(=N)N)C(=O)N[C@@H](CCC(=O)O)C(=O)N[C@@H](CCCNC(=N)N)C(=O)N[C@@H](Cc1ccccc1)C(N)=O [RERF, reference compound] (Ac-RERF-NH2)
- changes in body weight [1]: did not cause changes in body weight

Molecule: CC(=O)N[C@H](Cc1ccc(O)cc1)C(=O)N[C@H](CCCNC(=N)N)C(=O)N[C@H](CCC(=O)O)C(=O)N[C@H](CCCNC(=N)N)C(N)=O [RI-1, Ac-(D)-Tyr-(D)-Arg-(D)-Glu-(D)-Arg-NH2] (Ac-[dY][dR][dE][dR]-NH2)
- reduction of the extent of cell invasion (matrigel) [2]: 27%
- reduction of FBS-directed cell migration [3]: 33%

Molecule: CC(=O)N[C@H](Cc1ccc(O)cc1)C(=O)N[C@H](CCCNC(=N)N)C(=O)N[C@H](CO)C(=O)N[C@H](CCCNC(=N)N)C(N)=O [RI-2, Ac-(D)-Tyr-(D)-Arg-(D)-Ser-(D)-Arg-NH2] (Ac-[dY][dR][dS][dR]-NH2)
- reduction of the extent of cell invasion (matrigel) [2]: 23%
- reduction of FBS-directed cell migration [3]: 29%

Molecule: CC(C)(NC(=O)[C@@H](CCCNC(=N)N)NC(=O)Cc1ccccc1)C(=O)N[C@H](CCCNC(=N)N)C(N)=O [RI-4, Phenyl-Acetyl-D-Arg-Aib-D-Arg-NH2] (PhAc-[dR]-[Aib]-[dR]-NH2)
- reduction of the extent of cell invasion (matrigel) [2]: 23%
- reduction of FBS-directed cell migration [3]: 37%

Molecule: CC(C)(NC(=O)[C@@H](CCCNC(=N)N)NC(=O)CCc1ccccc1)C(=O)N[C@H](CCCNC(=N)N)C(N)=O [RI-5, 3-Phenyl-Propionyl-D-Arg-Aib-D-Arg-NH2] (Hydrocinnamoyl-[dR]-[Aib]-[dR]-NH2)
- reduction of the extent of cell invasion (matrigel) [2]: 9%
- reduction of FBS-directed cell migration [3]: 28%

Molecule: Ac-L-Arg-Aib-L-Arg-D-Ca(Me)Phe-NH2 [UPARANT]
- stability in blood and resistance to enzymatic proteolysis [4]: stable in blood and displays prolonged resistance to enzymatic proteolysis
- inhibition of sarcoma cell invasion in a mouse model of lung colonization [5]: does not inhibit

Molecule: N-formyl-Met-Leu-Phe [fMLF, N-formyl-methionyl-leucyl-phenylalanine, reference compound]
- effect on binding of FITC-fMLF to RBL-2H3/ETFR cells [6]: strongly reduced
- ability to trigger cell migration [7]: elicited a considerable cell migration
- effect on agonist-dependent FPR1 internalization [8]: prevented

Molecule: cyclized SRSRY: cyclized form of the uPAR 88–92 sequence Ser-Arg-Ser-Arg-Tyr (also: cyclized, mode not given here)
- IC50 [9]: 0.01 nM
